# The source made the active and inactive calls. No cut-off for these calls is given here.
# Legend:
# [1] = biological target: T1, Glutamate NMDA receptor; GRIN1/GRIN2B (Homo sapiens, UniProt Q05586+Q13224); experiment: Inhibition of recombinant GluN1/GluN2B receptor (unknown origin) expressed in HEK293 cells assessed as inhibition of glutamate-evoked current by whole-cell voltage-clamp method; type: cell-based
# [2] = Inhibition of AMPA receptor in rat hippocampal neurons assessed as inhibition of AMPA-evoked current by whole-cell voltage-clamp method in presence of receptor desensitization inhibitor cyclothiazide; type: tissue-based; conditions: Hippocampus
# Glutamate NMDA receptor = experiment: Inhibition of NMDA receptor in rat hippocampal neurons assessed as inhibition of glutamate-evoked current by whole-cell voltage-clamp method; type: tissue-based, Hippocampus
# [3] = Inhibition of GABA receptor in rat hippocampal neurons assessed as inhibition of GABA-evoked current by whole-cell voltage-clamp method; type: tissue-based; conditions: Hippocampus
# [4] = biological target: Ionotropic glutamate receptor NMDA 1/2D (Homo sapiens, UniProt O15399+Q05586); experiment: Inhibition of recombinant GluN1/GluN2D receptor (unknown origin) expressed in HEK293 cells assessed as inhibition of glutamate-evoked current by whole-cell voltage-clamp method; type: cell-based
# Chain of Ionotropic glutamate receptor NMDA 1/2D (O15399 whole entry, other chains not shown): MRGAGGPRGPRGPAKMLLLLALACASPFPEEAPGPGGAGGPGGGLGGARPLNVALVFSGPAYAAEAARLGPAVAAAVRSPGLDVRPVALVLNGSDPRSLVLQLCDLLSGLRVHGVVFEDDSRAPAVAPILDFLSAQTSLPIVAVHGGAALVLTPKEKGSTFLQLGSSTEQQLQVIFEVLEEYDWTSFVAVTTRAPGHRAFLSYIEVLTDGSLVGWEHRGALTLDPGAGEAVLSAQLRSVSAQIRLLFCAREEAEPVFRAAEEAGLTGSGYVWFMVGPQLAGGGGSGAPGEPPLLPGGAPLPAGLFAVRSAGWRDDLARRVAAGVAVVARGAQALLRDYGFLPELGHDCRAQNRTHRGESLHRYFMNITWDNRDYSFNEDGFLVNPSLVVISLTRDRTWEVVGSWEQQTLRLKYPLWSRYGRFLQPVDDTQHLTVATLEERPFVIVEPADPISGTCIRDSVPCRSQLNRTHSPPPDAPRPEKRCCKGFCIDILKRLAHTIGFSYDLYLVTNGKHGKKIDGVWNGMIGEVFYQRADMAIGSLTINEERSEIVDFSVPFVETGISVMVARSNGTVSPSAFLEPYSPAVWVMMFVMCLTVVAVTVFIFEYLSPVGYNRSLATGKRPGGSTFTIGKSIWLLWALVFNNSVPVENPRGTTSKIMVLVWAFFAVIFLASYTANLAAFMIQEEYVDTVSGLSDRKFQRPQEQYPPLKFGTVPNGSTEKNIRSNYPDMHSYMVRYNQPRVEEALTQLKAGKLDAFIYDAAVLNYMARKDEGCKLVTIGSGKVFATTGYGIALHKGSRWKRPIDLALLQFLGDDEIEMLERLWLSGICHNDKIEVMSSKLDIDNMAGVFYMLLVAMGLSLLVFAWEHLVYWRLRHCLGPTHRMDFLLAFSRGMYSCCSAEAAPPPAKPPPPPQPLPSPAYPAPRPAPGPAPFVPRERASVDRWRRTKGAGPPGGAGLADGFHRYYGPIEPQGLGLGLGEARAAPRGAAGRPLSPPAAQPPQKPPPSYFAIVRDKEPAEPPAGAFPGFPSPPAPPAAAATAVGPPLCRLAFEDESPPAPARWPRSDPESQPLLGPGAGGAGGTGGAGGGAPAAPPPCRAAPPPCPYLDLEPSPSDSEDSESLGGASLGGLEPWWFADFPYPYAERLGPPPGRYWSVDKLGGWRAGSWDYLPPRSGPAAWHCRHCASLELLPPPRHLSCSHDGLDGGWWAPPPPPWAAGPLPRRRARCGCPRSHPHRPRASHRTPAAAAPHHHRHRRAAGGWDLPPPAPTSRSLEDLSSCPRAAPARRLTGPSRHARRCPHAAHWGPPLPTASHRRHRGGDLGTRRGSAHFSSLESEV
# [5] = biological target: Ionotropic glutamate receptor NMDA 1/2C (Homo sapiens, UniProt Q05586+Q14957); experiment: Inhibition of recombinant GluN1/GluN2C receptor (unknown origin) expressed in HEK293 cells assessed as inhibition of glutamate-evoked current by whole-cell voltage-clamp method; type: cell-based
# Chain of Ionotropic glutamate receptor NMDA 1/2C (Q14957 whole entry, other chains not shown): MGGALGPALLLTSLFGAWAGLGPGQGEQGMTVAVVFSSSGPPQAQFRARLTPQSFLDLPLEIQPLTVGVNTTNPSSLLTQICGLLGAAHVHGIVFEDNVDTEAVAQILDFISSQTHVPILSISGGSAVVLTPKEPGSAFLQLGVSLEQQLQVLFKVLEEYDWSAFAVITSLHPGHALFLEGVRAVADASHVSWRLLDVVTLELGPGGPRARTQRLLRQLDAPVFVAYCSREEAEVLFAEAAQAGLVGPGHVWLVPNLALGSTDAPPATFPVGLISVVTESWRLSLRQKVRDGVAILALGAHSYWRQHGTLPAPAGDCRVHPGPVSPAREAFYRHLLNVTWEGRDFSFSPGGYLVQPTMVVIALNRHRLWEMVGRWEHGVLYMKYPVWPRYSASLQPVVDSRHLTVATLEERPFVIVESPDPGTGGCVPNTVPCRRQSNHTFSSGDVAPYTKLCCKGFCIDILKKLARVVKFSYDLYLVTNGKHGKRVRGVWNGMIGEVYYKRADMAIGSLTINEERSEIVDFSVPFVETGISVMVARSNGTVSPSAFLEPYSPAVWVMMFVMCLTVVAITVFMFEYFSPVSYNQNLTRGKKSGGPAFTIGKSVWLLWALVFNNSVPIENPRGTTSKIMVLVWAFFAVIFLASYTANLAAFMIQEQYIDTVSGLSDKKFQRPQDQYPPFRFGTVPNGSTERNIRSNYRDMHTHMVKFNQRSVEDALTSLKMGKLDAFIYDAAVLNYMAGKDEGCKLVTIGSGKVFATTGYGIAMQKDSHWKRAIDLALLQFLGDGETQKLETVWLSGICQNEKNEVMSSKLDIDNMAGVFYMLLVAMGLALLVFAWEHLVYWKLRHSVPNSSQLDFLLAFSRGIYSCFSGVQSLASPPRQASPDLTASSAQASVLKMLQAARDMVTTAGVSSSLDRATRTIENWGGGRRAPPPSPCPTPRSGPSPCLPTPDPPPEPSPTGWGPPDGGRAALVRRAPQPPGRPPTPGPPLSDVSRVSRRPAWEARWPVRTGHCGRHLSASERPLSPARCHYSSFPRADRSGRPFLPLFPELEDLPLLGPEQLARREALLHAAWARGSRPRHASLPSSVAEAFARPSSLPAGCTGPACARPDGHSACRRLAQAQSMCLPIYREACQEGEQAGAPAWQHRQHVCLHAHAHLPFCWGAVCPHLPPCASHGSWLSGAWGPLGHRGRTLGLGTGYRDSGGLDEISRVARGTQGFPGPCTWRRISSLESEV
# [6] = biological target: Glutamate NMDA receptor; GRIN1/GRIN2A (Homo sapiens, UniProt Q05586+Q12879); experiment: Inhibition of recombinant GluN1/GluN2A receptor (unknown origin) expressed in HEK293 cells assessed as inhibition of glutamate-evoked current by whole-cell voltage-clamp method; type: cell-based
# Chain of Glutamate NMDA receptor; GRIN1/GRIN2A (Q12879 whole entry, other chains not shown): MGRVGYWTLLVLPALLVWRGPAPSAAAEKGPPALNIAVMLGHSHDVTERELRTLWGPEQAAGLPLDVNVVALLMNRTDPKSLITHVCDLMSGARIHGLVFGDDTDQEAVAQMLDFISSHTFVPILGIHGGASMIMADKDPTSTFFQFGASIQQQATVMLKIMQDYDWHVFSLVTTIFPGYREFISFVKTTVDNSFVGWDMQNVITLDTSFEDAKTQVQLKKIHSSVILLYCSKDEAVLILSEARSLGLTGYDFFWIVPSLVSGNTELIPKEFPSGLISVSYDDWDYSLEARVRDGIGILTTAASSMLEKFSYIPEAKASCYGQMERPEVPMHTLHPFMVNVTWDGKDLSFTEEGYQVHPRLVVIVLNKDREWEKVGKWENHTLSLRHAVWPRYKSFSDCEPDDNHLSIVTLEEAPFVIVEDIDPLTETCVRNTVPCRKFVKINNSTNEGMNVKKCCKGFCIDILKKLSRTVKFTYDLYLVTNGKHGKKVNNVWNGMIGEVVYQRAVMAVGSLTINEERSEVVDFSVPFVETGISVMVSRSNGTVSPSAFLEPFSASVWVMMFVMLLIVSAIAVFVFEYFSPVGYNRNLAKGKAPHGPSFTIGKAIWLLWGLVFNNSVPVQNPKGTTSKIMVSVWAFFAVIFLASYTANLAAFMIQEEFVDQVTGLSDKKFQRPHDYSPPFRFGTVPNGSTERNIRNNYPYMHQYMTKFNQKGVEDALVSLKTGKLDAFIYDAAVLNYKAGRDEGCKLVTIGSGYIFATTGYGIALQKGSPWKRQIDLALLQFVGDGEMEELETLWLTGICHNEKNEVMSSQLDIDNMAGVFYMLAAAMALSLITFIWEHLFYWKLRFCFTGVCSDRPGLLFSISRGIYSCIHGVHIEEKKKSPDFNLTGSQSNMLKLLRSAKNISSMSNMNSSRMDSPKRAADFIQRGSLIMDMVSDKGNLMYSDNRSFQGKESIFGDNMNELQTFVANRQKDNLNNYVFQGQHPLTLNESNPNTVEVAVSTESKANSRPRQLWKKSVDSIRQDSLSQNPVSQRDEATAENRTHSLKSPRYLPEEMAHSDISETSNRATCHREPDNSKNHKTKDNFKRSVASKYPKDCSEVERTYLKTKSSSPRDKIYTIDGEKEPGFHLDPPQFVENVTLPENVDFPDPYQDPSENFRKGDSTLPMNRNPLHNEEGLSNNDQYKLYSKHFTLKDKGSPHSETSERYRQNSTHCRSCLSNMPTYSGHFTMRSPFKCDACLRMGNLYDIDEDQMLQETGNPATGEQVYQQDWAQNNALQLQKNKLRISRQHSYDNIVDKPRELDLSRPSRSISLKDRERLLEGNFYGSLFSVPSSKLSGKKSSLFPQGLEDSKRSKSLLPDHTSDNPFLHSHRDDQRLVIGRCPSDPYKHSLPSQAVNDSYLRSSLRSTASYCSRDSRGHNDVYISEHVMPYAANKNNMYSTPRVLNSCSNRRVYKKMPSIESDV
# [7] = biological target: T1, Glutamate NMDA receptor; GRIN1/GRIN2B; experiment: Inhibition of recombinant GluN1/GluN2B receptor (unknown origin) expressed in HEK293 cells assessed as inhibition of glutamate-evoked current at 1 to 10 uM by whole-cell voltage-clamp method; type: cell-based
SMILES,IC50 [1] [nM],also measured
CC(C)[C@H]1CC[C@H]2[C@@H]3CC[C@@H]4C[C@H](OS(=O)(=O)O)CC[C@]4(C)[C@H]3CC[C@]12C.c1ccncc1,170,
CC(=O)[C@H]1CC[C@H]2[C@@H]3CC[C@@H]4C[C@H](OS(=O)(=O)O)CC[C@]4(C)[C@H]3CC[C@]12C,23400,inhibition [1]: Dose-dependent effect
C[C@@]12CCCC[C@H]1[C@@H]1CC[C@@H]3C[C@H](OS(=O)(=O)O)CC[C@]3(C)[C@H]1CC2.c1ccncc1,1100,
C=C1C[C@H]2[C@@H]3CC[C@@H]4C[C@H](OS(=O)(=O)O)CC[C@]4(C)[C@H]3CC[C@]2(C)C1.c1ccncc1,2200,
C[C@]12CC[C@@H](OS(=O)(=O)O)C[C@H]1CC[C@@H]1[C@@H]2CC[C@]2(C)[C@@H](I)CC[C@@H]12.c1ccncc1,600,
C[C@H]1CC[C@H]2[C@@H]3CC[C@@H]4C[C@H](OS(=O)(=O)O)CC[C@]4(C)[C@H]3CC[C@]12C.c1ccncc1,600,IC50 [2]: 9500 nM; IC50 (Glutamate NMDA receptor): 900 nM; IC50 [3]: 1200 nM; IC50 [4]: 500 nM; IC50 [5]: 400 nM; IC50 [6]: 600 nM
C[C@H]1CC[C@@H]2[C@@H]1CC[C@H]1[C@H]2CC[C@@H]2C[C@H](OS(=O)(=O)O)CC[C@@]21C.c1ccncc1,700,
C[C@]12CC[C@@H](OS(=O)(=O)O)C[C@H]1CC[C@@H]1[C@@H]2CC[C@]2(C)C=CC[C@@H]12.c1ccncc1,,inhibition [7]: inactive
C/C=C1/CC[C@H]2[C@@H]3CC[C@@H]4C[C@H](OS(=O)(=O)O)CC[C@]4(C)[C@H]3CC[C@]12C.c1ccncc1,800,
CC[C@@H](C)[C@H]1CC[C@H]2[C@@H]3CC[C@@H]4C[C@H](OS(=O)(=O)O)CC[C@]4(C)[C@H]3CC[C@]12C.c1ccncc1,90,
C[C@@]12CCC[C@H]1[C@@H]1CC[C@@H]3C[C@H](OS(=O)(=O)O)CC[C@@H]3[C@H]1CC2.c1ccncc1,5400,
CC[C@H]1CC[C@H]2[C@@H]3CC[C@@H]4C[C@H](OS(=O)(=O)O)CC[C@]4(C)[C@H]3CC[C@]12C.c1ccncc1,400,
C[C@@H]1CC[C@@H]2[C@H]1CC[C@H]1[C@H]2CC[C@@H]2C[C@H](OS(=O)(=O)O)CC[C@@]21C.c1ccncc1,900,
C=C(C)[C@H]1CC[C@H]2[C@@H]3CC[C@@H]4C[C@H](OS(=O)(=O)O)CC[C@]4(C)[C@H]3CC[C@]12C.c1ccncc1,500,
C=C1CC[C@H]2[C@@H]3CC[C@@H]4C[C@H](OS(=O)(=O)O)CC[C@]4(C)[C@H]3CC[C@]12C.c1ccncc1,1600,
C[C@@]12CCC[C@H]1[C@@H]1CC[C@@H]3C[C@H](OS(=O)(=O)O)CC[C@]3(C)[C@H]1CC2.c1ccncc1,1200,
C[C@]12CC[C@@H](OS(=O)(=O)O)C[C@H]1CC[C@@H]1[C@@H]2CC[C@@]2(C)[C@H]1CCC2(F)F.c1ccncc1,7000,

# From ChEMBL document CHEMBL3593227, “A New Class of Potent N-Methyl-D-Aspartate Receptor Inhibitors: Sulfated Neuroactive Steroids with Lipophilic D-Ring Modifications” (J Med Chem, 2015)
